Measurements reported in paper PMC6920875, “Dithiocarbamate as a Valuable Scaffold for the Inhibition of Metallo-β-Lactmases” (Biomolecules, 2019).
Structures can show the parent of a compound that is named as a salt.

Assays:
[1] = biological target: T1, VIM-2 (Escherichia coli, UniProt Q5U7L7); type: biochemical; conditions: read-out: IC50 against VIM-2; substrate cefazolin 40 µM, 30 mM Tris pH 7.0, 25 °C, 5 min pre-incubation, inhibitor up to 200 μM
T1 construct: made in house; host or cells: E. coli BL21 (DE3), plasmid pET24a-VIM-2
Procedure: (§1) The dithiocarbamates, MβLs and substrates samples were prepared with 30 mM Tris, pH 7.0. […] Enzymes and inhibitors were pre-incubated for 5 min before adding substrate. […] The IC50 values were nonlinearly fitted by plotting the average percentage inhibition against inhibitor concentration. The inhibition modes of DC1 to ImiS, NDM-1 and L1 were assayed by generating Lineweaver–Burk plots, and Ki values were obtained by fitting initial velocity versus substrate concentration at each inhibitor concentration, using SigmaPlot 12.0 (Systat Software Inc., San Jose, CA, USA).
(§2) To evaluate the inhibitory activity of the dithiocarbamates, we over-expressed and purified MβLs NDM-1, VIM-2 and IMP-1 (B1), ImiS (B2), and L1 (B3) from three subclasses as previously reported. The inhibition experiments were performed with an Agilent UV8453 spectrometer. […] The concentrations of inhibitors were varied between 0 and 200 μM. The initial reaction rates were determined in the absence and presence of inhibitors in triplicate, and the generated average values were recorded.

[2] = biological target: T2, IMP-1 (Serratia marcescens, UniProt P52699); assay: biochemical; conditions: read-out: IC50 against IMP-1; substrate cefazolin 40 µM, 30 mM Tris pH 7.0, 25 °C, 5 min pre-incubation, inhibitor up to 200 μM
T2 construct: made in house; host or cells: E. coli BL21 (DE3), plasmid pET26b-IMP-1
Procedure: as §1, §2

[3] = biological target: T3, L1 (Stenotrophomonas maltophilia, UniProt P52700); assay: biochemical; conditions: read-out: IC50 against L1; substrate cefazolin 40 µM, 30 mM Tris pH 7.0, 25 °C, 5 min pre-incubation, inhibitor up to 200 μM
T3 construct: made in house; host or cells: E. coli BL21 (DE3), plasmid pET-26b-L1
Procedure: as §1, §2

[4] = biological target: T4, NDM-1 (Klebsiella pneumoniae, UniProt C7C422); assay: biochemical; conditions: read-out: IC50 against NDM-1; substrate cefazolin 40 µM, 30 mM Tris pH 7.0, 25 °C, 5 min pre-incubation, inhibitor up to 200 μM
T4 construct: made in house; host or cells: E. coli BL21 (DE3), plasmid pET26b-NDM-1
Procedure: as §1, §2

[5] = biological target: T5, ImiS (Aeromonas veronii, UniProt O31272); assay: biochemical; parameters: species or system Aeromonas veronii bv. sobria; conditions: read-out: IC50 against ImiS; substrate imipenem 40 µM, 30 mM Tris pH 7.0, 25 °C, 5 min pre-incubation, inhibitor up to 200 μM
T5 construct: made in house; host or cells: E. coli BL21 (DE3), plasmid pET-26b-ImiS
Procedure: as §1, §2

[6] = system: mouse fibroblast cells (L-929); assay: Cytotoxicity assay (MTT); type: cell-based; conditions: concentration as high as 250 μM, 48 h
Procedure: The cytotoxicity assays were performed to evaluate the toxicity of DC1, DC3, DC7 and DC9 in mouse fibroblast cells (L-929). The cells were seeded into 96-well plates at a cell density of 1.0 × 10^4 cells/well, in 100 μL of culture medium and maintained for 24 h. Then, the inhibitors with working concentrations (15.6, 31.25, 62.5, 125, 250, and 500 μM) were added to the 96-well plates and incubated for another 48 h. Three wells containing only cells were suspended in a mixture solution of 98 μL complete medium, as controls for cell viability without inhibitors. Three wells containing only the complete medium were used as blank controls. Following that, the medium was removed, and 100 μL of fresh culture medium and 10 μL MTT were added to each well. After incubation for 4 h, the trays were then vigorously shaken to solubilize the formed product, and the absorbance, at a wavelength of 490 nm, was read on a microplate reader and analyzed. All experiments were conducted in triplicate, and the data are expressed as mean ± standard deviation.
The potential toxicity of dthiocarbamates DC1, DC3, DC7 and DC9 as representatives was assayed using the mouse fibroblast cells (L929) treated with different concentrations of inhibitors (15.625, 31.25, 62.5, 125, 250 and 500 μM).

[7] = system: Cc1nnc(SCC2=C(C(=O)O)N3C(=O)[C@@H](NC(=O)Cn4cnnn4)[C@H]3SC2)s1; assay: purified protein, by the assay type; conditions: other: test conditions: 30 mM Tris pH 7.0, 25 °C
[8] = system: C[C@@H](O)[C@H]1C(=O)N2C(C(=O)O)=C(SCCN=CN)C[C@H]12; assay: purified protein, by the assay type; conditions: other: test conditions: 30 mM Tris pH 7.0, 25 °C
[9] = biological target: T4, NDM-1; assay: Time-dependence inhibition experiment, residual activity; type: biochemical; conditions: 13 nM NDM-1 incubated with inhibitor at its IC50 for 8 h
[10] = system: E. coli BL21 expressing ImiS; assay: MIC determination, broth micro-dilution, imipenem with inhibitor; type: cell-based; conditions: 64 μg/mL inhibitor
Procedure: (§3) The minimum inhibitory concentration (MIC) of antibiotics, both alone and in the presence of enzyme inhibitors, was determined using the broth micro-dilution method. Single colonies of E. coli BL21, containing plasmid, pET26b-NDM-1, pET26b-ImiS or pET26b-L1 in lysogeny broth agar plates, were transferred into 5 mL of Mueller–Hinton (MH) liquid medium. Strains grown in MH medium to OD600 = 0.45 were used as inocula, after an 84-fold dilution to 1 × 10^5 CFU/mL in MH medium. […] Compound DCs as inhibitors were dissolved in MH media, to prepare 1024, 512, 256, 128, 64 and 32 μg/mL stock solutions. The prepared solutions with different antibiotic concentrations (50 μL) were diluted to 100 μL, with different concentrations of inhibitor solution (50 μL), then 100 μL inoculum was added sequentially into the prepared solutions, to yield a quarter of the initial concentrations. The mixtures were incubated at 37 °C for 16 h. […] Each measurement was performed in duplicate.
(§4) The ability of the dithiocarbamate derivatives to inhibit MβLs, and to restore the antimicrobial activity of antibiotics, was investigated by determining the minimum inhibitory concentrations (MICs) of existing antibiotics in the presence and absence of DC1-10, as previously reported. E. coli BL21 (DE3) containing plasmids pET26b-NDM-1, pET26b-ImiS and pET26b-L1 were used to assess these inhibitors.

[11] = system: E. coli BL21 expressing L1; assay: MIC determination, broth micro-dilution, cefazolin with inhibitor; type: cell-based; conditions: 64 μg/mL inhibitor
Procedure: as §3, §4

[12] = system: E. coli BL21 expressing NDM-1; assay: as above; type: cell-based; conditions: E. coli BL21-NDM-1; 64 μg/mL inhibitor
Procedure: as §3, §4

T3 sequence (P52700 34-290): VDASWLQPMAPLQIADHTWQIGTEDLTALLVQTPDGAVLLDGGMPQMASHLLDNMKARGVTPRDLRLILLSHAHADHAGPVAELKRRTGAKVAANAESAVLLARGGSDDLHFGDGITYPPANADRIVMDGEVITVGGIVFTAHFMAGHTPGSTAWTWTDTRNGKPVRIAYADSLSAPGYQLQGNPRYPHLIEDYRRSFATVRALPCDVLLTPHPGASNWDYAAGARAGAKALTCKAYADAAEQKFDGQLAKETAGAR
T4 sequence (C7C422 29-270 limits assumed): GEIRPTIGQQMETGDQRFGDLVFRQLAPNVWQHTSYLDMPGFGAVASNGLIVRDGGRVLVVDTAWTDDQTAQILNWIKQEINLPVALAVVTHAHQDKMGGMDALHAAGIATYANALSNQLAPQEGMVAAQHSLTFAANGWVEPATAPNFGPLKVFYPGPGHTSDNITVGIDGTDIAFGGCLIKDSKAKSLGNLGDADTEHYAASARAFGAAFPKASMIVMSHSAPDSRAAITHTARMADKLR
T2 sequence (P52699 19-246 limits assumed): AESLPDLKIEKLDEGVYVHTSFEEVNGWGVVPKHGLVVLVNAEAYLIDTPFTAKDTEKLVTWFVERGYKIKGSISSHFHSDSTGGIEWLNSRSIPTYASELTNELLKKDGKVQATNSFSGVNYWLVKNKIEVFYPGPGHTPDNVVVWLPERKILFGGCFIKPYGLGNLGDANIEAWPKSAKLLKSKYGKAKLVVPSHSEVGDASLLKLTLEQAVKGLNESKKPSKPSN
T5 sequence (O31272 28-255 limits assumed): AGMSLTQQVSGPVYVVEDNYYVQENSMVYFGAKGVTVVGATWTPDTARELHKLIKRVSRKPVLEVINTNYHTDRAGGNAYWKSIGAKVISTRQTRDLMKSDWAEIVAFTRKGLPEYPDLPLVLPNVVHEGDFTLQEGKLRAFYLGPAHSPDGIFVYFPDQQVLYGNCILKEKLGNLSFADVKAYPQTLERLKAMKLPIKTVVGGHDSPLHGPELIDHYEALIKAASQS

| Molecule | IC50 [1] [µM] | IC50 [2] [µM] | IC50 [3] [µM] | IC50 [4] [µM] | IC50 [5] [µM] | melting point [°C] | also measured |
| --- | --- | --- | --- | --- | --- | --- | --- |
| Nc1ccccc1C(=O)NNC(=S)[S][K] [DC4] | 139 ± 2.05 | 103 ± 1.45 | 177 ± 2.8 | 11.4 ± 0.4 | 1.08 ± 0.05 | 233 to 234 | – |
| CC(C)(C)c1ccc(C(=O)NNC(=S)[S][K])cc1 [DC7] | 63.5 ± 1.3 | 96.4 ± 1.2 | 191 ± 4 | 0.52 ± 0.01 | > 200 | > 300 | survival rate of L929 mouse cells [6]: higher than 80% |
| IMP-1 (Serratia marcescens) | – | – | – | – | – | – | Km [7]: 73 µM |
| VIM-2 (Escherichia coli) | – | – | – | – | – | – | Km [7]: 97 µM |
| O=C(CCc1ccccc1)NNC(=S)[S][K] [DC9, Potassium 2-(3-phenylpropanoyl)hydrazine-1-carbodithioate] | 115 ± 3.1 | 86.2 ± 0.9 | > 200 | 62.7 ± 1.05 | 156 ± 2.2 | – | survival rate of L929 mouse cells [6]: higher than 80% |
| ImiS (Aeromonas veronii) | – | – | – | – | – | – | Km [8]: 52 µM |
| O=C(Cc1ccccc1)NNC(=S)[S][K] [DC2] | > 200 | 166 ± 2.7 | 86.8 ± 1.6 | 5.64 ± 0.1 | 2.5 ± 0.1 | 150 to 151 | – |
| NDM-1 (Klebsiella pneumoniae) | – | – | – | – | – | – | Km [7]: 15 µM |
| O=C(NNC(=S)[S][K])C(O)c1ccccc1 (centres unmarked) [DC10, Potassium 2-(2-hydroxy-2-phenylacetyl)hydrazine-1-carbodithioate] | – | – | – | – | – | – | time dependence of NDM-1 inhibition (residual activity) [9]: no time-dependent inhibition |
| O=C(NNC(=S)[S][K])c1cccc(Br)c1 [DC6] | > 200 | > 200 | 154 ± 3.2 | 15.2 ± 0.9 | 2.56 ± 0.05 | > 300 | – |
| O=C(NNC(=S)[S][K])c1ccccc1 [DC8] | – | – | 25.81 ± 0.12 | – | – | – | time dependence of NDM-1 inhibition (residual activity) [9]: no time-dependent inhibition |
| O=C(NNC(=S)[S][K])c1ccc(O)cc1 [DC3] | 82.8 ± 1.1 | > 200 | > 200 | 67.1 ± 0.9 | > 200 | 298 to 299 | fold reduction in MIC of imipenem [10]: no inhibitory effects; fold reduction in MIC of cefazolin [11]: no inhibitory effects; fold reduction in MIC of cefazolin [12]: no inhibitory effects; survival rate of L929 mouse cells [6]: higher than 80% |
| O=C(NNC(=S)[S][K])c1ccc(Cl)cc1 [DC5] | > 200 | > 200 | > 200 | 91.3 ± 1.7 | 129 ± 2.1 | > 300 | – |
| O=C(CCc1ccccc1)NNC(=S)[S][K] (as salt: potassium) [DC9, Potassium 2-(3-phenylpropanoyl)hydrazine-1-carbodithioate] | – | – | – | – | – | 170 to 171 | – |
| L1 (Stenotrophomonas maltophilia) | – | – | – | – | – | – | Km [7]: 60 µM |
